The record followed here is BindingDB's records for doi:10.7270/Q2TX3CTT (Broad Institute, 2010).

By EC50 is commonly meant the concentration needed to bring the measured effect to its halfway point. A higher EC50 goes with a less potent agent.

Bounds are passed on as bounds.

The target of this experiment is Glycogen synthase kinase-3 beta (Homo sapiens, UniProt P49841). The experiment in a line: GSK3beta kinase inhibitor potency, dose response, biochemical, luminescence, cell-free homogeneous, retest (AID 434954).
Chain of Glycogen synthase kinase-3 beta (P49841 whole entry): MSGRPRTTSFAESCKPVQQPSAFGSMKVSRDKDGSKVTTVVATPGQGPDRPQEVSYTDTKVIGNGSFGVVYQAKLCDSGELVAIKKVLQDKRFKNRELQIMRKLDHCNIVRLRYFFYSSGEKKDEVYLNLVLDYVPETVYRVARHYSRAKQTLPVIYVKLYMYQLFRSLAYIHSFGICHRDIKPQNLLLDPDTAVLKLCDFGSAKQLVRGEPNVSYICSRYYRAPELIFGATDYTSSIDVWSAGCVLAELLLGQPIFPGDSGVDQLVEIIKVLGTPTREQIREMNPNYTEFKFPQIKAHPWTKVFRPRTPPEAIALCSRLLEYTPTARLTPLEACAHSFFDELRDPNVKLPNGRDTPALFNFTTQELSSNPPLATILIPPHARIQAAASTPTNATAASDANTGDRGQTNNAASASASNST
`COc1ccc(-c2nn(CCC#N)cc2CN=O)cc1OC` [3-[3-(3,4-dimethoxyphenyl)-4-(hydroxyiminomethyl)pyrazol-1-yl]propanenitrile] gave an EC50 of more than 300 µM.

`N#CCCSc1nc(N2CCOCC2)c2c(c1C#N)CCCC2` [3-(2-cyanoethylthio)-1-(4-morpholinyl)-5,6,7,8-tetrahydroisoquinoline-4-carbonitrile] returned an EC50 of 9.29 µM. Compound `Nc1nonc1-n1nnc(C(=O)N/N=C/c2ccncc2)c1CN1CCCCC1` displayed an EC50 of 0.181 µM. Turning to `COc1cc(C2OCC3C(c4cc(OC)c(OC)c(OC)c4)OCC23)cc(OC)c1OC` (stereo not given), the EC50 was more than 300 µM. `CCCn1nc(NC(=O)C2CCCO2)c2cc3cccc(C)c3nc21` (stereo not given) [N-(8-methyl-1-propylpyrazolo[3,4-b]quinolin-3-yl)oxolane-2-carboxamide] registered an EC50 of more than 300 µM. The compound `COCCCNC(=O)c1ccc(CS(=O)(=O)c2ccc(OC)cc2)o1` [5-[(4-methoxyphenyl)sulfonylmethyl]-N-(3-methoxypropyl)furan-2-carboxamide] yielded an EC50 of more than 300 µM. On to `COCCCn1c(-c2ccc(OC)cc2)nc2nc3ccccc3nc21`, for which the EC50 was more than 300 µM. With `COC(=O)[C@@H]1Cc2c([nH]c3ccccc23)C2CCC(=O)N21` (stereo partly drawn) [methyl (5S)-3-oxidanylidene-1,2,5,6,11,11b-hexahydroindolizino[8,7-b]indole-5-carboxylate] the figure was more than 300 µM; with `COc1cc(CN=Nc2ccc(C(F)(F)F)cn2)ccc1O` [(4E)-2-methoxy-4-[[[5-(trifluoromethyl)-2-pyridinyl]hydrazo]methylidene]-1-cyclohexa-2,5-dienone], 10.1 µM; with `COc1ccc(CN(CC(=O)NCc2ccco2)C(=O)CCC(=O)Nc2ccccn2)cc1` [N'-[2-(2-furanylmethylamino)-2-oxoethyl]-N'-[(4-methoxyphenyl)methyl]-N-(2-pyridinyl)butanediamide], more than 300 µM. With `CC(C)Nc1nnc(SCC(=O)NCc2ccc3c(c2)OCO3)s1` [SMR000375706], the concentration giving a half-maximal response (EC50) is more than 300 µM. Then `CC(C)N1CCc2c(sc(NC(=O)Cc3ccccc3)c2C(N)=O)C1`, with more than 300 µM. `N#Cc1c(O)nc(SCC(=O)Nc2ccc(OC(F)(F)Cl)cc2)nc1-c1ccccc1` [N-{4-[chloro(difluoro)methoxy]phenyl}-2-[(5-cyano-6-oxo-4-phenyl-1,6-dihydropyrimidin-2-yl)thio]acetamide]: the EC50 was more than 300 µM. `COc1ccc(COC(=O)C2C(C)=NC(=O)NC2c2ccc(O)c(OC)c2)cc1` (stereo not given) [4-(4-hydroxy-3-methoxyphenyl)-6-methyl-2-oxo-3,4-dihydro-1H-pyrimidine-5-carboxylic acid (4-methoxyphenyl)methyl ester] yielded an EC50 of more than 300 µM.

`Cc1ccsc1C1NC(=O)c2c(sc3c2CCCC3)N1` (stereo not given) [MLS000027648]: the EC50 was more than 300 µM.

In turn, `COc1ccc(CN(CC(=O)NCc2ccccc2)C(=O)CCC(=O)Nc2cc(C)ccn2)cc1` [N-(Benzylcarbamoyl-methyl)-N-(4-methoxy-benzyl)-N'-(4-methyl-pyridin-2-yl)-succinamide] gave an EC50 of 21.3 µM. This lies in the double-digit micromolar range.

The compound `CCc1nnc(NC(=O)c2cccc(OC)c2)s1` [MLS000104553] had an EC50 of more than 300 µM. `CC(C)N1CC(C(=O)Nc2ccc(Br)c(Cl)c2)CC1=O` (stereo not given) [N-(4-bromo-3-chlorophenyl)-5-oxo-1-propan-2-yl-3-pyrrolidinecarboxamide] had an EC50 of more than 300 µM. The compound `CC(=O)N1CCc2c(sc(NC(=O)Cc3ccc(F)cc3)c2C(N)=O)C1` [6-acetyl-2-[[2-(4-fluorophenyl)-1-oxoethyl]amino]-5,7-dihydro-4H-thieno[2,3-c]pyridine-3-carboxamide] gave an EC50 of 47.2 µM. In the case of `CN(C)S(=O)(=O)c1cc(NC(=O)COC(=O)Cc2ccc(Br)cc2)ccc1Cl` [SMR000243172], the EC50 is more than 300 µM. In turn, `COc1ccc(-n2nc3c(N)n[nH]c3cc2=O)cc1` [SMR000337768] returned an EC50 of 14.1 µM. On to `COC(=O)C(CC(C)C)NC(=O)CSc1nc(-c2ccccc2)c(C#N)c(=O)[nH]1` (stereo not given), for which the EC50 is more than 300 µM. In turn, `Cc1nn(CC(=O)NCCCN2CCCCC2)c(=O)c2cccn12` [2-(4-methyl-1-oxidanylidene-pyrrolo[1,2-d][1,2,4]triazin-2-yl)-N-(3-piperidin-1-ylpropyl)ethanamide] had an EC50 of more than 300 µM. Compound `CCOc1ccc2nc(N3CCC(C(=O)N4CCN(C5CCCCC5)CC4)CC3)sc2c1` [(4-cyclohexyl-1-piperazinyl)-[1-(6-ethoxy-1,3-benzothiazol-2-yl)-4-piperidinyl]methanone] returned an EC50 of more than 300 µM. Then `CCCn1nc(NC(=O)c2cccs2)c2cc3cc(C)ccc3nc21` [SMR000436650], with more than 300 µM. `COc1ccc(CNC(=O)CN(Cc2ccc(OC)cc2)C(=O)CCC(=O)Nc2nccs2)cc1` [MLS001222948] returned an EC50 of 19.1 µM. This lies in the double-digit micromolar range.

As for `O=C(CS(=O)(=O)c1ccccc1)c1cc2ccccc2oc1=O` [3-[2-(phenylsulfonyl)ethanoyl]chromen-2-one], the EC50 is more than 300 µM. In turn, `CC(C)CNc1nc(N)c([N+](=O)[O-])c(NC2CCCCC2)n1` [MLS001213331] showed an EC50 of 13.5 µM. In the case of `OCCNc1nc(-c2cccnc2)nc2ccccc12` [MLS000107346], the EC50 is more than 300 µM. Turning to `CCN(CC)CCNc1nc(SC)nc2sc3c(c12)CCN(C)C3`, the EC50 was more than 300 µM.

`O=C(Cc1ccc([N+](=O)[O-])cc1)Nc1ccc2c(c1)C(=O)NC2=O` [SMR000291894] gave an EC50 of more than 300 µM. Regarding `COC(=O)c1cc(C(=O)Nc2cc(C)ccn2)cc([N+](=O)[O-])c1` [methyl 3-{[(4-methyl-2-pyridinyl)amino]carbonyl}-5-nitrobenzoate], the EC50 is more than 300 µM.

The compound `CCc1ccccc1NC(=O)CSc1nnc(-c2ccncc2)o1` [SMR000324383] came in with an EC50 of more than 300 µM. Compound `Cc1cc2cc(CN(CCCN3CCOCC3)C(=O)NC3CCCCC3)c(=O)[nH]c2cc1C` [3-cyclohexyl-1-[(6,7-dimethyl-2-oxo-1H-quinolin-3-yl)methyl]-1-(3-morpholin-4-ylpropyl)urea] had an EC50 of more than 300 µM. In the case of `Nc1ncnc2c1ccn2[C@@H]1O[C@H](CO)[C@@H](O)[C@H]1O` ['2-(4-AMINO-PYRROLO[2,3-D]PYRIMIDIN-7-YL)-5-HYDROXYMETHYL-TETRAHYDRO-FURAN-3,4-DIOL], the EC50 is more than 300 µM. With `O=C(Nc1cccc(F)c1)Nc1ccccn1` [MLS000111709], the EC50 was more than 300 µM. In the case of `O=C(CCS(=O)(=O)c1ccccc1)Nc1cccc2c1C(=O)NC2=O` [3-(benzenesulfonyl)-N-(1,3-dioxoisoindol-4-yl)propanamide], the EC50 is 25.2 µM.

`c1ccc(CSc2nnc(-c3cccnc3)o2)cc1` [3-(5-Benzylsulfanyl-[1,3,4]oxadiazol-2-yl)-pyridine] showed an EC50 of more than 300 µM. Consider `Cn1nc2c3ccccc3n(Cc3ccc(F)cc3)c2nc1=S`, for which the EC50 is more than 300 µM. Consider `CCCn1nc(NC(=O)C(C)C)c2cc3cc(OC)ccc3nc21` [N-(6-methoxy-1-propylpyrazolo[3,4-b]quinolin-3-yl)-2-methylpropanamide], for which the EC50 is more than 300 µM.

`CCOc1ccccc1CNC(=O)CCn1ccc2cc(S(=O)(=O)N3CCCCC3)ccc21` [SMR000629632] gave an EC50 of more than 300 µM. As for `CSc1nc(NCCCN(C)C)c2c3c(sc2n1)CN(C)CC3` [SMR000543143], the EC50 is more than 300 µM. `CCc1nn(CC(=O)NCCC(C)C)c(=O)c2cc3c(OC)cccc3n12` [2-(4-ethyl-9-methoxy-1-oxo-[1,2,4]triazino[4,5-a]indol-2-yl)-N-(3-methylbutyl)acetamide] showed an EC50 of more than 300 µM.

`O=C1NC(=Nc2ccccc2)SC1=Cc1ccccc1` [5-Benzylidene-2-phenylimino-thiazolidin-4-one] had an EC50 of more than 300 µM.

In turn, `Cc1ccc(Nc2nc(N)c([N+](=O)[O-])c(NCc3ccccc3)n2)cc1` [N2-(4-methylphenyl)-5-nitro-N4-(phenylmethyl)pyrimidine-2,4,6-triamine] gave an EC50 of more than 300 µM. As to `COCCn1c(SCC(=O)NCc2ccccc2)nc2ccccc21` [MLS001171409], the EC50 was more than 300 µM. Turning to `CSc1nc(SCC(N)=O)c2c3c(sc2n1)CN(C)CC3`, the EC50 was 5.08 µM. With `O=C(O)c1cccc(CSc2nnc(-c3cccnc3)o2)c1` [SMR000503811] the figure was more than 300 µM; with `Cc1cc(NC(=O)CSc2nc(-c3cccnc3)ccc2C#N)no1` [MLS000036936], more than 300 µM; with `Cc1cc2c(Nc3ccc(O)cc3)ncnc2s1` [4-(6-Methyl-thieno[2,3-d]pyrimidin-4-ylamino)-phenol], more than 300 µM. The compound `COc1ccc(-c2nn(-c3ccccc3)cc2CN=O)cc1OC` [N-[[3-(3,4-dimethoxyphenyl)-1-phenylpyrazol-4-yl]methylidene]hydroxylamine] displayed an EC50 of 3.99 µM. With `Cc1cc(-c2onc3ccc(Cl)cc23)ccc1O` [(4E)-4-(5-chloro-1H-2,1-benzoxazol-3-ylidene)-2-methylcyclohexa-2,5-dien-1-one] the figure was more than 300 µM; with `COC(=O)c1nnn(-c2nonc2N)c1CSc1nnc(N)s1` [1-(4-amino-1,2,5-oxadiazol-3-yl)-5-[[(5-amino-1,3,4-thiadiazol-2-yl)thio]methyl]-4-triazolecarboxylic acid methyl ester], 40 µM; with `COc1ccc(OC)c(CCNC(=O)c2ccc3c(=O)[nH]c4c(C(=O)NC(C)C)sc(=S)n4c3c2)c1`, more than 300 µM.

`O=C1CC(O)(C(F)(F)F)Oc2c1ccc1ccccc21` (stereo not given) [2-oxidanyl-2-(trifluoromethyl)-3H-benzo[h]chromen-4-one] had an EC50 of more than 300 µM. The compound `COCCNC(=O)c1ccc(Cl)c(Cl)c1` [SMR000069998] returned a concentration giving a half-maximal response (EC50) of more than 300 µM.

For `CCc1nc2oc3cc(OC)ccc3c(=O)c2c(=O)n1Cc1ccccc1` [2-ethyl-8-methoxy-3-(phenylmethyl)chromeno[2,3-d]pyrimidine-4,5-dione], the EC50 was 4.2 µM. `COc1cccc(CNC(=O)C2CCN(S(=O)(=O)c3ccc(-n4cnnn4)cc3)CC2)c1` [SMR000600329] displayed an EC50 of more than 300 µM. Compound `Nc1nonc1-n1nnc(C(=O)NN=Cc2ccccc2F)c1-c1cccs1` showed an EC50 of 14.4 µM. `CC(C(=O)NCc1ccco1)n1cc([N+](=O)[O-])cn1` (stereo not given) [N-(2-furylmethyl)-2-(4-nitro-1H-pyrazol-1-yl)propanamide] had an EC50 of more than 300 µM.
